Assays:
[1] = target: recombinant Plk1 (Homo sapiens, UniProt P53350); assay: In Vitro Plk1 Enzyme Assay (SPA, GST-Cdc25C phosphorylation); type: biochemical; conditions: ATP 64 nM, 90 minutes, read-out: IC50 (Plk1 enzyme inhibition)
[2] = tested on: human colon tumour cell line HT29; assay: Cellular Assay (phosphohistone H3 Ser10 mitotic marker, HT29); type: cell-based; conditions: HT-29, 24 h, HT29 cells, read-out: IC50 (cellular assay, phosphohistone H3)

recombinant Plk1, sequence (P53350 whole entry): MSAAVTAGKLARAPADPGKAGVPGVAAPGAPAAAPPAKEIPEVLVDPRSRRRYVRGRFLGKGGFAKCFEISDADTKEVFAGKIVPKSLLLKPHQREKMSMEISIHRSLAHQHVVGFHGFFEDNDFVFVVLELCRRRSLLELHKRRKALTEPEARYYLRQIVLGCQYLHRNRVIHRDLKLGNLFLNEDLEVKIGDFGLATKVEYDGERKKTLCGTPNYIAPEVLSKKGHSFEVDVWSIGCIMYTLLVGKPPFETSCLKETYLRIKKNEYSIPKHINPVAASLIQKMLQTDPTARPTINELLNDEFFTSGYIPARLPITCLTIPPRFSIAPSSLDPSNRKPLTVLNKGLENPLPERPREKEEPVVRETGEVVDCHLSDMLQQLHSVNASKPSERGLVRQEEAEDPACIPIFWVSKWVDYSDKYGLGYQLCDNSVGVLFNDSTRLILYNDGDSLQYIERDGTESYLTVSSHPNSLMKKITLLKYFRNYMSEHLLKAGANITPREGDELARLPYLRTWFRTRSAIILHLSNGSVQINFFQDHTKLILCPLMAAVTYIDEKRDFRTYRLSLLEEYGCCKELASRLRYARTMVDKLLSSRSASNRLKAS

Row | IC50 [1] [nM] | IC50 [2] [nM] | Structure (SMILES)
1 | < 100000 | < 30000 | COc1cc(C(=O)NC2CCCCC2)ccc1Nc1ncc2c(n1)N(CCN1CCOCC1)CCC(=O)N2C [Example 277, N-cyclohexyl-3-methoxy-4-[[6-methyl-2-(2-morpholin-4-ylethyl)-5-oxo-2,6,9,11-tetrazabicyclo[5.4.0]undeca-7,9,11-trien-10-yl]amino]benzamide]
2 | < 300 | < 30000 | CN1CCC(NC(=O)c2ccc(Nc3ncc4c(n3)N(C3CCCC3)CCC(=O)N4C)cn2)CC1 [Example 270, 5-[(6-cyclopentyl-2-methyl-3-oxo-2,6,8,10-tetrazabicyclo[5.4.0]undeca-8,10,12-trien-9-yl)amino]-N-(1-methyl-4-piperidyl)pyridine-2-carboxamide]
3 | < 300 | < 1000 | CCOc1cc(C(=O)NC2CCN(C)CC2)ccc1Nc1ncc2c(n1)N(C(C)C)CCC(=O)N2C [Example 281, 3-ethoxy-4-[(6-methyl-5-oxo-2-propan-2-yl-2,6,9,11-tetrazabicyclo[5.4.0]undeca-7,9,11-trien-10-yl)amino]-N-(1-methyl-4-piperidyl)benzamide]
4 | < 1000 | < 300 | COc1cc(C(=O)NC(C)(C)CN2CCCC2)ccc1Nc1ncc2c(n1)N(C1CCCC1)CCC(=O)N2C [Example 81, 4-[(6-cyclopentyl-2-methyl-3-oxo-2,6,8,10-tetrazabicyclo[5.4.0]undeca-8,10,12-trien-9-yl)amino]-3-methoxy-N-(2-methyl-1-pyrrolidin-1-yl-propan-2-yl)benzamide]
5 | < 300 | < 30000 | COc1cc(C(=O)NCCCN)ccc1Nc1ncc2c(n1)N(C1CCCC1)CCC(=O)N2C [Example 42, N-(3-aminopropyl)-4-[(6-cyclopentyl-2-methyl-3-oxo-2,6,8,10-tetrazabicyclo[5.4.0]undeca-8,10,12-trien-9-yl)amino]-3-methoxy-benzamide]
6 | < 300 | < 30000 | COc1cc(C(=O)NC2CCN(C)CC2)ccc1Nc1ncc2c(n1)N(Cc1ccoc1)CCC(=O)N2C [Example 231, 4-[[6-(3-furylmethyl)-2-methyl-3-oxo-2,6,8,10-tetrazabicyclo[5.4.0]undeca-8,10,12-trien-9-yl]amino]-3-methoxy-N-(1-methyl-4-piperidyl)benzamide]
7 | < 300 | < 300 | COc1cc(C(=O)N[C@H]2CCN(C)C2)ccc1Nc1ncc2c(n1)N(C1CCCC1)CCC(=O)N2C [Example 63, 4-[(6-cyclopentyl-2-methyl-3-oxo-2,6,8,10-tetrazabicyclo[5.4.0]undeca-8,10,12-trien-9-yl)amino]-3-methoxy-N-[(3S)-1-methylpyrrolidin-3-yl]benzamide]
8 | < 300 | < 300 | CCN1CCC(NC(=O)c2ccc(Nc3ncc4c(n3)N(C3CCCC3)CCC(=O)N4C)c(OC)c2)CC1 [Example 61, 4-[(6-cyclopentyl-2-methyl-3-oxo-2,6,8,10-tetrazabicyclo[5.4.0]undeca-8,10,12-trien-9-yl)amino]-N-(1-ethyl-4-piperidyl)-3-methoxy-benzamide]
9 | < 300 | < 300 | CCCN1CC[C@@H](NC(=O)c2ccc(Nc3ncc4c(n3)N(C3CCCC3)CCC(=O)N4C)c(OC)c2)C1 [Example 327, 4-[(2-cyclopentyl-6-methyl-5-oxo-2,6,9,11-tetrazabicyclo[5.4.0]undeca-7,9,11-trien-10-yl)amino]-3-methoxy-N-[(3R)-1-propylpyrrolidin-3-yl]benzamide]
10 | < 1000 | < 30000 | COc1cc(C(=O)NC2CCN(C)CC2)ccc1Nc1ncc2c(n1)N(CC(=N)OC(C)CC(C)C)CCC(=O)N2C (centres unmarked) [Example 272, 3-methoxy-4-[[6-methyl-2-[(4-methylpentan-2-yloxycarbonimidoyl)methyl]-5-oxo-2,6,9,11-tetrazabicyclo[5.4.0]undeca-7,9,11-trien-10-yl]amino]-N-(1-methyl-4-piperidyl)benzamide]

The remaining lines, values behind:

Row | Structure (SMILES) | IC50 [1] [nM] | IC50 [2] [nM]
11 | COc1cc(C(=O)NCCC2CCCCN2C)ccc1Nc1ncc2c(n1)N(C1CCCC1)CCC(=O)N2C (centres unmarked) [Example 85, 4-[(6-cyclopentyl-2-methyl-3-oxo-2,6,8,10-tetrazabicyclo[5.4.0]undeca-8,10,12-trien-9-yl)amino]-3-methoxy-N-[2-(1-methyl-2-piperidyl)ethyl]benzamide] | < 300 | < 300
12 | COc1cc(C(=O)Nc2ccccc2)ccc1Nc1ncc2c(n1)N(C1CCCC1)CCC(=O)N2C [Example 99, 4-[(6-cyclopentyl-2-methyl-3-oxo-2,6,8,10-tetrazabicyclo[5.4.0]undeca-8,10,12-trien-9-yl)amino]-3-methoxy-N-phenyl-benzamide] | < 100000 | < 1000
13 | COc1cc(C(=O)NCCN2CC3CCC(C2)O3)ccc1Nc1ncc2c(n1)N(C1CCCC1)CCC(=O)N2C [Example 32, 4-[(6-cyclopentyl-2-methyl-3-oxo-2,6,8,10-tetrazabicyclo[5.4.0]undeca-8,10,12-trien-9-yl)amino]-3-methoxy-N-[2-(8-oxa-3-azabicyclo[3.2.1]oct-3-yl)ethyl]benzamide] | < 1000 | < 300
14 | CN1C(=O)CCN(C2CCCC2)c2nc(Nc3ccc4[nH]c(-c5cccnc5)nc4c3)ncc21 [Example 132, 6-cyclopentyl-2-methyl-9-[(2-pyridin-3-yl-1H-benzoimidazol-5-yl)amino]-2,6,8,10-tetrazabicyclo[5.4.0]undeca-8,10,12-trien-3-one] | < 1000 | < 30000
15 | COc1cc(C(=O)NCc2cccnc2)ccc1Nc1ncc2c(n1)N(C1CCCC1)CCC(=O)N2C [Example 76, 4-[(6-cyclopentyl-2-methyl-3-oxo-2,6,8,10-tetrazabicyclo[5.4.0]undeca-8,10,12-trien-9-yl)amino]-3-methoxy-N-(pyridin-3-ylmethyl)benzamide] | < 1000 | < 300
16 | COc1cc(C(=O)NCCCCN)ccc1Nc1ncc2c(n1)N(C1CCCC1)CCC(=O)N2C [Example 40, N-(4-aminobutyl)-4-[(6-cyclopentyl-2-methyl-3-oxo-2,6,8,10-tetrazabicyclo[5.4.0]undeca-8,10,12-trien-9-yl)amino]-3-methoxy-benzamide] | < 300 | < 30000
17 | CN1CC[C@@H](NC(=O)c2cc(Cl)c(Nc3ncc4c(n3)N(C3CCCC3)CCC(=O)N4C)cc2F)C1 [Example 325, 5-chloro-4-[(2-cyclopentyl-6-methyl-5-oxo-2,6,9,11-tetrazabicyclo[5.4.0]undeca-7,9,11-trien-10-yl)amino]-2-fluoro-N-[(3R)-1-methylpyrrolidin-3-yl]benzamide] | < 300 | < 300
18 | CN(C)CCNC(=O)c1ccc(Nc2ncc3c(n2)N(C2CCCC2)CCC(=O)N3C)c(Cl)c1 [Example 315, 3-chloro-4-[(2-cyclopentyl-6-methyl-5-oxo-2,6,9,11-tetrazabicyclo[5.4.0]undeca-7,9,11-trien-10-yl)amino]-N-(2-dimethylaminoethyl)benzamide] | < 300 | < 300
19 | COc1cc(C(=O)NCc2ccccc2)ccc1Nc1ncc2c(n1)N(C1CCCC1)CCC(=O)N2C [Example 96, N-benzyl-4-[(6-cyclopentyl-2-methyl-3-oxo-2,6,8,10-tetrazabicyclo[5.4.0]undeca-8,10,12-trien-9-yl)amino]-3-methoxy-benzamide] | < 100000 | < 300

From patent US7709471B2, “Compounds” (AstraZeneca AB, priority 2006, dated 2010)
